Columns and labels:
Endothelin-1 receptor [1] = target: T1, Endothelin-1 receptor (Sus scrofa, UniProt Q29010); experiment: Binding affinity against ETA receptor in porcine aortic smooth muscle membrane was determined
T1 sequence (Q29010 whole entry): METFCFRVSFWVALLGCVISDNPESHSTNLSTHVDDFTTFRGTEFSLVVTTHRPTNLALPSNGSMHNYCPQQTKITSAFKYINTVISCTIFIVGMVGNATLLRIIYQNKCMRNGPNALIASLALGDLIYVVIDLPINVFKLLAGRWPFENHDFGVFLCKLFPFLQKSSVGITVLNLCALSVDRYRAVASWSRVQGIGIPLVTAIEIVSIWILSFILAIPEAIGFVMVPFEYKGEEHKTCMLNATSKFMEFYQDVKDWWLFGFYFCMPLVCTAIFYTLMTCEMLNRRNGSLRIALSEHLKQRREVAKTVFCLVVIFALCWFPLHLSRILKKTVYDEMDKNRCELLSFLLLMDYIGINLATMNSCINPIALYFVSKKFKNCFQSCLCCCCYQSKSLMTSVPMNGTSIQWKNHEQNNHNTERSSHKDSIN

Endothelin-1 receptor [2] = target: T1, Endothelin-1 receptor; experiment: Binding affinity against ETA receptor in porcine aortic smooth muscle membrane
Endothelin-1 receptor [3] = target: T1, Endothelin-1 receptor; experiment: Binding affinity determined against ETA receptor in porcine aortic smooth muscle membrane
Endothelin-1 receptor [4] = target: T1, Endothelin-1 receptor; experiment: Antagonistic activity towards ET- l-induced contraction in porcine coronary arteries; assay type: functional; conditions: read-out: pA2 (converted)

| Structure (SMILES) | IC50 (Endothelin-1 receptor [2]) [nM] | IC50 max (Endothelin-1 receptor [3]) [µM] | other results |
| --- | --- | --- | --- |
| CC(C)CC(=O)N[C@@H](CC(C)C)C(=O)N[C@H](Cc1c[nH]c2ccccc12)C(=O)N[C@H](CC(=O)O)C(=O)O | – | – | IC50 (Endothelin-1 receptor [1]): 25 µM |
| CC(C)C[C@H](NC(=O)[C@H](N)C(C)C)C(=O)N[C@H](Cc1c[nH]c2ccccc12)C(=O)N[C@H](CC(=O)O)C(=O)O | – | – | IC50 (Endothelin-1 receptor [1]): 32 µM |
| CC(C)C[C@H](NC(=O)N1CCCCC1)C(=O)NC(Cc1c[nH]c2ccccc12)C(=O)NCCC(=O)O (single isomer, unassigned) | – | 0.081 | – |
| CC(C)C[C@H](NC(=O)N(CCO)C(C)(C)C)C(=O)NC(Cc1c[nH]c2ccccc12)C(=O)NCCC(=O)O (single isomer, unassigned) | – | 0.053 | – |
| CC(C)C[C@H](NC(=O)N1CCCC1)C(=O)NC(Cc1c[nH]c2ccccc12)C(=O)NCCC(=O)O (single isomer, unassigned) | – | 0.31 | – |
| CC(C)C[C@H](NC(=O)Cc1cccs1)C(=O)NC(Cc1c[nH]c2ccccc12)C(=O)NCCC(=O)O (single isomer, unassigned) | 540 | 0.42 | – |
| CC(C)C[C@H](NC(=O)CC(C)(C)C)C(=O)NC(Cc1c[nH]c2ccccc12)C(=O)NCCC(=O)O (single isomer, unassigned) | 6700 | – | – |
| Cc1cccc(NC(=O)N[C@@H](CC(C)C)C(=O)NC(Cc2c[nH]c3ccccc23)C(=O)NCCC(=O)O)c1 (single isomer, unassigned) | 2100 | – | – |
| CC(C)C[C@H](NC(=O)NCc1ccccc1)C(=O)NC(Cc1c[nH]c2ccccc12)C(=O)NCCC(=O)O (single isomer, unassigned) | 3200 | – | – |
| CC(C)C[C@H](NC(=O)N1CCC(C)CC1)C(=O)NC(Cc1c[nH]c2ccccc12)C(=O)NCCC(=O)O (single isomer, unassigned) | – | 0.58 | – |
| CC(C)CC(=O)N[C@@H](CC(C)C)C(=O)NC(Cc1c[nH]c2ccccc12)C(=O)NCCC(=O)O (single isomer, unassigned) | – | – | IC50 (Endothelin-1 receptor [1]): 3.9 µM |
| CC(C)C[C@H](NC(=O)NC(C)(C)C)C(=O)NC(Cc1c[nH]c2ccccc12)C(=O)NCCC(=O)O (single isomer, unassigned) | 230 | 0.15 | – |
| CC(C)C[C@H](NC(=O)N1CCc2ccccc2C1)C(=O)NC(Cc1c[nH]c2ccccc12)C(=O)NCCC(=O)O (single isomer, unassigned) | – | 0.53 | – |
| CC(C)C[C@H](NC(=O)NCC(C)(C)C)C(=O)NC(Cc1c[nH]c2ccccc12)C(=O)NCCC(=O)O (single isomer, unassigned) | – | 0.56 | – |

Second part, led by results:

| IC50 (Endothelin-1 receptor [2]) [nM] | IC50 max (Endothelin-1 receptor [3]) [µM] | Structure (SMILES) | other results |
| --- | --- | --- | --- |
| 420 | 0.27 | CC(C)C[C@H](NC(=O)OC(C)(C)C)C(=O)NC(Cc1c[nH]c2ccccc12)C(=O)NCCC(=O)O (single isomer, unassigned) | – |
| – | 0.055 | CC(C)C[C@H](NC(=O)N1CCCCCCCCC1)C(=O)NC(Cc1c[nH]c2ccccc12)C(=O)NCCC(=O)O (single isomer, unassigned) | – |
| – | 0.051 | CC(C)C[C@H](NC(=O)N1C(C)CCCC1C)C(=O)NC(Cc1c[nH]c2ccccc12)C(=O)NCCC(=O)O (single isomer, unassigned) | – |
| 970 | 0.62 | CC(C)C[C@H](NC(=O)CC1CCCC1)C(=O)NC(Cc1c[nH]c2ccccc12)C(=O)NCCC(=O)O (single isomer, unassigned) | – |
| – | 0.061 | CC(C)C[C@H](NC(=O)N1CCCCCC1)C(=O)NC(Cc1c[nH]c2ccccc12)C(=O)NCCC(=O)O (single isomer, unassigned) | Kb (Endothelin-1 receptor [4]): 60.3 nM |
| – | 0.33 | CC(C)C[C@H](NC(=O)NC12CC3CC(CC(C3)C1)C2)C(=O)NC(Cc1c[nH]c2ccccc12)C(=O)NCCC(=O)O (single isomer, unassigned) | – |
| 2100 | – | CC(C)C[C@H](NC(=O)Nc1cccc(Cl)c1)C(=O)NC(Cc1c[nH]c2ccccc12)C(=O)NCCC(=O)O (single isomer, unassigned) | – |
| – | 0.057 | CC(C)C[C@H](NC(=O)N(C(C)C)C(C)C)C(=O)NC(Cc1c[nH]c2ccccc12)C(=O)NCCC(=O)O (single isomer, unassigned) | – |
| – | 0.19 | CC(C)C[C@H](NC(=O)N1C(C)(C)CCCC1(C)C)C(=O)NC(Cc1c[nH]c2ccccc12)C(=O)NCCC(=O)O (single isomer, unassigned) | – |
